{"source": "ChEMBL document CHEMBL1152339", "about": "“Use of the in vivo hollow fiber assay in natural products anticancer drug discovery” (J Nat Prod, 2009)", "key": {"[1]": {"system": "LNCaP", "experiment": "Growth inhibition of human LNCAP cells xenografted in NCr nu/nu mouse at 10 to 40 mg/kg, ip once daily administered from day 3 to 6 after implantation measured on day 7 by MTT-based hollow-fiber test", "assay_type": "functional", "conditions": "route intraperitoneal"}, "[2]": {"system": "LNCaP", "experiment": "Growth inhibition of human LNCAP cells xenografted in NCr nu/nu mouse at 10 to 40 mg/kg, sc once daily administered from day 3 to 6 after implantation measured on day 7 by MTT-based hollow-fiber test", "assay_type": "functional", "conditions": "route subcutaneous"}, "[3]": {"system": "LNCaP", "experiment": "Growth inhibition of human LNCAP cells xenografted in ip dosed NCr nu/nu mouse administered once daily from day 3 to 6 after implantation measured on day 7 by MTT-based hollow-fiber test", "assay_type": "functional"}, "[4]": {"system": "KB", "experiment": "Growth inhibition of human KB cells xenografted in NCr nu/nu mouse at 25 to 100 mg/kg, ip once daily administered from day 3 to 6 after implantation measured on day 7 by MTT-based hollow-fiber test", "assay_type": "functional", "conditions": "route intraperitoneal"}, "[5]": {"system": "KB", "experiment": "Growth inhibition of human KB cells xenografted in NCr nu/nu mouse at 25 to 100 mg/kg, sc once daily administered from day 3 to 6 after implantation measured on day 7 by MTT-based hollow-fiber test", "assay_type": "functional", "conditions": "route subcutaneous"}, "[6]": {"system": "LNCaP", "experiment": "Growth inhibition of human LNCAP cells xenografted in NCr nu/nu mouse at 25 to 100 mg/kg, ip once daily administered from day 3 to 6 after implantation measured on day 7 by MTT-based hollow-fiber test", "assay_type": "functional", "conditions": "route intraperitoneal"}, "[7]": {"system": "LNCaP", "experiment": "Growth inhibition of human LNCAP cells xenografted in NCr nu/nu mouse at 25 to 100 mg/kg, sc once daily administered from day 3 to 6 after implantation measured on day 7 by MTT-based hollow-fiber test", "assay_type": "functional", "conditions": "route subcutaneous"}, "[8]": {"system": "KB", "experiment": "Growth inhibition of human KB cells xenografted in NCr nu/nu mouse at 0.78 to 3.125 mg/kg, ip once daily administered from day 3 to 6 after implantation measured on day 7 by MTT-based hollow-fiber test", "assay_type": "functional", "conditions": "route intraperitoneal"}, "[9]": {"system": "KB", "experiment": "Growth inhibition of human KB cells xenografted in NCr nu/nu mouse at 0.78 to 3.125 mg/kg, sc once daily administered from day 3 to 6 after implantation measured on day 7 by MTT-based hollow-fiber test", "assay_type": "functional", "conditions": "route subcutaneous"}, "[10]": {"system": "LNCaP", "experiment": "Growth inhibition of human LNCAP cells xenografted in NCr nu/nu mouse at 0.78 to 3.125 mg/kg, ip once daily administered from day 3 to 6 after implantation measured on day 7 by MTT-based hollow-fiber test", "assay_type": "functional", "conditions": "route intraperitoneal"}, "[11]": {"system": "LNCaP", "experiment": "Growth inhibition of human LNCAP cells xenografted in NCr nu/nu mouse at 0.78 to 3.125 mg/kg, sc once daily administered from day 3 to 6 after implantation measured on day 7 by MTT-based hollow-fiber test", "assay_type": "functional", "conditions": "route subcutaneous"}, "[12]": {"system": "MCF7", "experiment": "Growth inhibition of human MCF7 cells xenografted in NCr nu/nu mouse at 6.25 to 50 mg/kg, sc once daily administered from day 3 to 6 after implantation measured on day 7 by MTT-based hollow-fiber test", "assay_type": "functional", "conditions": "dose mg/kg 3-6; route subcutaneous"}, "[13]": {"system": "MCF7", "experiment": "Growth inhibition of human MCF7 cells xenografted in NCr nu/nu mouse at 6.25 to 50 mg/kg, ip once daily administered from day 3 to 6 after implantation measured on day 7 by MTT-based hollow-fiber test", "assay_type": "functional", "conditions": "dose mg/kg 3-6; route intraperitoneal"}, "[14]": {"system": "Lu1", "experiment": "Growth inhibition of human Lu1 cells xenografted in NCr nu/nu mouse at 0.625 to 5 mg/kg, ip once daily administered from day 3 to 6 after implantation measured on day 7 by MTT-based hollow-fiber test", "assay_type": "functional", "conditions": "dose mg/kg 3-6; route intraperitoneal"}, "[15]": {"system": "Lu1", "experiment": "Growth inhibition of human Lu1 cells xenografted in NCr nu/nu mouse at 0.625 to 5 mg/kg, sc once daily administered from day 3 to 6 after implantation measured on day 7 by MTT-based hollow-fiber test", "assay_type": "functional", "conditions": "dose mg/kg 3-6; route subcutaneous"}, "[16]": {"system": "LNCaP", "experiment": "Growth inhibition of human LNCAP cells xenografted in NCr nu/nu mouse at 0.625 to 5 mg/kg, ip once daily administered from day 3 to 6 after implantation measured on day 7 by MTT-based hollow-fiber test", "assay_type": "functional", "conditions": "route intraperitoneal"}, "[17]": {"system": "LNCaP", "experiment": "Growth inhibition of human LNCAP cells xenografted in NCr nu/nu mouse at 0.625 to 5 mg/kg, sc once daily administered from day 3 to 6 after implantation measured on day 7 by MTT-based hollow-fiber test", "assay_type": "functional", "conditions": "route subcutaneous"}, "[18]": {"system": "MCF7", "experiment": "Growth inhibition of human MCF7 cells xenografted in NCr nu/nu mouse at 0.625 to 5 mg/kg, ip once daily administered from day 3 to 6 after implantation measured on day 7 by MTT-based hollow-fiber test", "assay_type": "functional", "conditions": "dose mg/kg 3-6; route intraperitoneal"}, "[19]": {"system": "MCF7", "experiment": "Growth inhibition of human MCF7 cells xenografted in NCr nu/nu mouse at 0.625 to 5 mg/kg, sc once daily administered from day 3 to 6 after implantation measured on day 7 by MTT-based hollow-fiber test", "assay_type": "functional", "conditions": "dose mg/kg 3-6; route subcutaneous"}, "[20]": {"experiment": "Acute toxicity in ip dosed mouse", "assay_type": "organism-based", "conditions": "in vivo"}, "[21]": {"system": "MCF7", "experiment": "Growth inhibition of human MCF7 cells xenografted in ip dosed NCr nu/nu mouse administered once daily from day 3 to 6 after implantation measured on day 7 by MTT-based hollow-fiber test", "assay_type": "functional"}, "[22]": {"system": "Lu1", "experiment": "Growth inhibition of human Lu1 cells xenografted in ip dosed NCr nu/nu mouse administered once daily from day 3 to 6 after implantation measured on day 7 by MTT-based hollow-fiber test", "assay_type": "functional"}}, "data": [{"smiles": "COc1ccc([C@H]2COc3c(ccc4c3C=CC(C)(CCC=C(C)C)O4)C2)c(O)c1O", "note": "(stereo not given in full) [NITIDULIN]", "values": [{"measurement": "growth inhibition (GI)", "setting": "[1]", "result": 54, "unit": "%"}, {"measurement": "growth inhibition (GI)", "setting": "[2]", "result": 0, "unit": "%"}, {"measurement": "ED50", "setting": "[3]", "result": 9700, "unit": "nM"}]}, {"smiles": "C[C@]12CC[C@]3(O)C[C@@]1(CC[C@@H]1[C@@]4(C)CCC[C@]12OC4=O)C(=O)C3=O", "values": [{"measurement": "growth inhibition (GI)", "setting": "[4]", "result": 0, "unit": "%"}, {"measurement": "growth inhibition (GI)", "setting": "[5]", "result": 0, "unit": "%"}, {"measurement": "growth inhibition (GI)", "setting": "[6]", "result": 0, "unit": "%"}, {"measurement": "growth inhibition (GI)", "setting": "[7]", "result": 0, "unit": "%"}, {"measurement": "ED50", "setting": "[3]", "result": 4500, "unit": "nM"}]}, {"smiles": "CC(=O)O[C@@H]1O[C@@H]([C@H]2c3cccc(O)c3C(=O)c3c(O)cc(C)cc32)[C@H](O)[C@@H](OC(=O)C=C(C)C)[C@H]1O", "note": "[ALVARADOIN H]", "values": [{"measurement": "growth inhibition (GI)", "setting": "[8]", "result": 43, "unit": "%"}, {"measurement": "growth inhibition (GI)", "setting": "[9]", "result": 1, "unit": "%"}, {"measurement": "growth inhibition (GI)", "setting": "[10]", "result": 47, "unit": "%"}, {"measurement": "growth inhibition (GI)", "setting": "[11]", "result": 10, "unit": "%"}, {"measurement": "ED50", "setting": "[3]", "result": 290, "unit": "nM"}]}, {"smiles": "CCCCCCCCCCCCC[C@@H]1C[C@@H](O)C[C@]2(CCC3(C=CC(=O)C=C3)O2)O1", "note": "[ACULEATIN A]", "values": [{"measurement": "growth inhibition (GI)", "setting": "[12]", "result": 0, "unit": "%"}, {"measurement": "growth inhibition (GI)", "setting": "[13]", "result": 10, "unit": "%"}]}, {"smiles": "COC(=O)[C@H]1[C@@H](O)[C@@]2(O)c3c(OC)cc(O[C@@H]4O[C@@H]([C@H](O)CO)CO[C@H]4OC)cc3O[C@@]2(c2ccc(OC)cc2)[C@@H]1c1ccccc1", "note": "[SILVESTROL]", "values": [{"measurement": "growth inhibition (GI)", "setting": "[14]", "result": 12, "unit": "%"}, {"measurement": "growth inhibition (GI)", "setting": "[15]", "result": 0, "unit": "%"}, {"measurement": "growth inhibition (GI)", "setting": "[16]", "result": 15, "unit": "%"}, {"measurement": "growth inhibition (GI)", "setting": "[17]", "result": 12, "unit": "%"}, {"measurement": "growth inhibition (GI)", "setting": "[18]", "result": 20, "unit": "%"}, {"measurement": "growth inhibition (GI)", "setting": "[19]", "result": 5, "unit": "%"}, {"measurement": "MTD", "setting": "[20]", "result": 2.5, "unit": "mg/kg"}, {"measurement": "ED50", "setting": "[21]", "result": 1.5, "unit": "nM"}, {"measurement": "ED50", "setting": "[3]", "result": 1.5, "unit": "nM"}, {"measurement": "ED50", "setting": "[22]", "result": 1.2, "unit": "nM"}]}]}
